Assay results: patent US11858905B1, “Cathepsin L inhibitors” (priority 2023, dated 2024)
pIC50: −log10 of the molar value. Like-named read-outs stand apart in the source and are kept apart here.

Columns and labels:
[1] = target: human CatL (Homo sapiens (Human), UniProt P07711); test: Human Cathepsin L (CatL) enzymatic assay; assay type: biochemical
Description: Human Cathepsin L (CatL) Enzymatic Assay
60 μL of the compounds were added to 384-well dilution plate. The compound solution was diluted for 1:3 in succession in DMSO for each column for 10 pts. 0.05 μL diluted compound solution was added in each row to 384 assay plates (Corning 4514) using Echo (LABCYTE 655), each column containing 2 replicates. 5 μL working solution of human CatL enzyme (Abcam #ab81780) was added to 384-well assay plate, centrifuge 1000 rpm for 1 min. The mixture was incubated at […] for 15 min, then add 5 μL working solution of CatL substrate (Genscript #C7360HB140_5) to initiate the reaction (CatL: 0.05 nM, Substrate: 500 nM). Incubate at […] for 30 min. Reading Ex370 nm and Em460 nm fluorescence signals with BMG CLARIO Star Plusaucu. Percent inhibition for each compound was calculated and IC50 (half maximal inhibitory concentration) was fitted from non-linear regression by XLfit 5.5.0.

[2] = tested on: SARS-CoV-2 PsVs; test: microbe, parasite or virus in culture; assay type: cell-based; conditions: for activity at 0.5 µM / activity at 5 µM: Severe acute respiratory syndrome coronavirus 2, Vero C1008, 24 h; for activity at 0.5 µM: read-out: % Infection rate at 500 nM; for activity at 5 µM: read-out: % Infection rate at 5 uM
[3] = CatL 0.05 nM, substrate 500 nM, pH 5.5, read-out: Enzymatic inhibition IC50
[4] = summary of Table 2, read-out: IC50 for inhibiting CatL

Sequence of human CatL (P07711 whole entry, looked up): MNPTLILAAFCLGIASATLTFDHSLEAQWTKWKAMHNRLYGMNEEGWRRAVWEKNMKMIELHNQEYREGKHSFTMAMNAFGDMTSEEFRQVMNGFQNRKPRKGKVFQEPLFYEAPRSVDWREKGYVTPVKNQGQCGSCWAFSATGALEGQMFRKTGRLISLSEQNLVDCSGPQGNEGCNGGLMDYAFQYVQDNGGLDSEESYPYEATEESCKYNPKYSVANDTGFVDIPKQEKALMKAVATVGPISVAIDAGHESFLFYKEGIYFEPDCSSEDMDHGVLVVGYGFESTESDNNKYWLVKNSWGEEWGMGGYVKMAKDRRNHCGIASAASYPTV

| Structure (SMILES) | pIC50 [1, 3] | activity at 0.5 µM [2] | activity at 5 µM [2] | pIC50 [1, 4] | protection of cells from pseudovirus infection at 500 nM ([2]; 500 nM) |
| --- | --- | --- | --- | --- | --- |
| CN1CCN(c2ccc3nc(C[C@H](NC(=O)c4cc(C5CC5)nn4C4CC4)C(=O)NCC#N)oc3c2)CC1 [Compound 25, (S)—N-(1-((cyanomethyl)amino)-3-(6-(4-methylpiperazin-1-yl)benzo[d]oxazol-2-yl)-1-oxopropan-2-yl)-1,3-dicyclopropyl-1 H-pyrazole-5-carboxamide] | 7.44 | 54% | 15% | – | – |
| CN1CCN(c2ccc3nc(C[C@H](NC(=O)c4cc(C(C)(C)C)nn4C4CC4)C(=O)NC4(C#N)CC4)oc3c2)CC1 [Compound 26, (S)-3-(tert-butyl)-N-(1-((1-cyanocyclopropyl)amino)-3-(6-(4-methylpiperazin-1-yl)benzo[d]oxazol-2-yl)-1-oxopropan-2-yl)-1-cyclopropyl-1 H-pyrazole-5-carboxamide] | 8.85 | 25% | 2.2% | > 8.00 | – |
| CN1CC=C(c2ccc3nc(C[C@H](NC(=O)c4cccc(Cl)c4)C(=O)NC4(C#N)CC4)oc3c2)CC1 [Compound 27, (S)-3-chloro-N-(1-((1-cyanocyclopropyl)amino)-3-(6-(1-methyl-1,2,3,6-tetrahydropyridin-4-yl)benzo[d]oxazol-2-yl)-1-oxopropan-2-yl)benzamide] | 8.07 | 40% | 13% | > 8.00 | – |
| N#CC1(NC(=O)[C@H](Cc2nc3ccc(C4=CCN(CC(F)F)CC4)cc3o2)NC(=O)c2cccc(Cl)c2)CC1 [Compound 28, (S)-3-chloro-N-(1-((1-cyanocyclopropyl)amino)-3-(6-(1-(2,2-difluoroethyl)-1,2,3,6-tetrahydropyridin-4-yl)benzo[d]oxazol-2-yl)-1-oxopropan-2-yl)benzamide] | 7.91 | 70% | 38% | – | – |
| CC(C)(C)c1cc(C(=O)N[C@@H](Cc2nc3ccc(C4=CCN(CC(F)F)CC4)cc3o2)C(=O)NC2(C#N)CC2)n(C2CC2)n1 [Compound 29, (S)-3-(tert-butyl)-N-(1-((1-cyanocyclopropyl)amino)-3-(6-(1-(2,2-difluoroethyl)-1,2,3,6-tetrahydropyridin-4-yl)benzo[d]oxazol-2-yl)-1-oxopropan-2-yl)-1-cyclopropyl-1 H-pyrazole-5-carboxamide] | 8.89 | 7.3% | 8.8% | > 8.00 | nearly full protection |
| CN1CCN(c2ccc3nc(C[C@H](NC(=O)c4cccc(Cl)c4)C(=O)NC4(C#N)CC4)oc3c2)C(=O)C1 [Compound 30, (S)-3-chloro-N-(1-((1-cyanocyclopropyl)amino)-3-(6-(4-methyl-2-oxopiperazin-1-yl)benzo[d]oxazol-2-yl)-1-oxopropan-2-yl)benzamide] | 6.91 | 99% | 101% | – | – |
| N#CC1(NC(=O)[C@H](Cc2nc3ccccc3s2)NC(=O)c2cccc(Cl)c2)CC1 [Compound 31, (S)—N-(3-(benzo[d]thiazol-2-yl)-1-((1-cyanocyclopropyl)amino)-1-oxopropan-2-yl)-3-chlorobenzamide] | 7.93 | 67% | 10% | > 7.30 | – |
| Cn1c(C[C@H](NC(=O)c2cccc(Cl)c2)C(=O)NC2(C#N)CC2)nc2ccccc21 [Compound 32, (S)-3-chloro-N-(1-((1-cyanocyclopropyl)amino)-3-(1-methyl-1 H-benzo[d]imidazol-2-yl)-1-oxopropan-2-yl)benzamide] | < 6.00 | 101% | 95% | – | – |
| CC(C)(C)c1cc(C(=O)N[C@@H](Cc2nc3ccc(Br)cc3o2)C(=O)NC2(C#N)CC2)n(C2CC2)n1 [Compound 33, (S)—N-(3-(6-bromobenzo[d]oxazol-2-yl)-1-((1-cyanocyclopropyl)amino)-1-oxopropan-2-yl)-3-(tert-butyl)-1-cyclopropyl-1H-pyrazole-5-carboxamide] | 8.54 | 39% | 5.9% | – | – |
| CC(C)(C)c1cc(C(=O)N[C@@H](Cc2nc3ccc(-c4ccc(N)nc4)cc3o2)C(=O)NC2(C#N)CC2)n(C2CC2)n1 [Compound 34, (S)—N-(3-(6-(6-aminopyridin-3-yl)benzo[d]oxazol-2-yl)-1-((1-cyanocyclopropyl)amino)-1-oxopropan-2-yl)-3-(tert-butyl)-1-cyclopropyl-1H-pyrazole-5-carboxamide] | 9.22 | 41% | 0.9% | – | – |
| Cc1cc(-c2ccc3nc(C[C@H](NC(=O)c4cc(C5(C)CC5)nn4C4CC4)C(=O)NCC#N)oc3c2)ccn1 [Compound 35, (S)—N-(1-((cyanomethyl)amino)-3-(6-(2-methylpyridin-4-yl)benzo[d]oxazol-2-yl)-1-oxopropan-2-yl)-1-cyclopropyl-3-(1-methylcyclopropyl)-1H-pyrazole-5-carboxamide] | 8.96 | 40% | 3.1% | – | – |
| Cc1cc(-c2ccc3nc(C[C@H](NS(=O)(=O)c4cccc(Br)c4)C(=O)NCC#N)oc3c2)ccn1 [Compound 36, (S)-2-((3-bromophenyl)sulfonamido)-N-(cyanomethyl)-3-(6-(2-methylpyridin-4-yl)benzo[d]oxazol-2-yl)propanamide] | 7.10 | 110% | 125% | – | – |
| Cc1cc(-c2ccc3nc(C[C@H](NS(=O)(=O)c4cccc(Cl)c4)C(=O)NCC#N)oc3c2)ccn1 [Compound 37, (S)-2-((3-chlorophenyl)sulfonamido)-N-(cyanomethyl)-3-(6-(2-methylpyridin-4-yl)benzo[d]oxazol-2-yl)propanamide] | 6.90 | 96% | 104% | – | – |
| Cc1cc(-c2ccc3nc(C[C@H](NC(=O)c4cc(C5(C)CC5)nn4C4CC4)C(=O)NC4(C#N)CC4)oc3c2)ccn1 [Compound 38, (S)—N-(1-((1-cyanocyclopropyl)amino)-3-(6-(2-methylpyridin-4-yl)benzo[d]oxazol-2-yl)-1-oxopropan-2-yl)-1-cyclopropyl-3-(1-methylcyclopropyl)-1H-pyrazole-5-carboxamide] | 8.77 | 34% | 1% | – | – |
| CN(C)c1ccc(-c2ccc3nc(C[C@H](NC(=O)c4cc(C5(C)CC5)nn4C4CC4)C(=O)NC4(C#N)CC4)oc3c2)cn1 [Compound 39, (2S)—N-(1-cyanocyclopropyl)-2-{[2-cyclopropyl-5-(1-methylcyclopropyl)pyrazol-3-yl]formamido}-3-{6-[6-(dimethylamino)pyridin-3-yl]-1,3-benzoxazol-2-yl}propanamide] | 8.80 | 32% | 4% | – | – |
| CC1(c2cc(C(=O)N[C@@H](Cc3nc4ccc(C5=CCN(CC(F)F)CC5)cc4o3)C(=O)NC3(C#N)CC3)n(C3CC3)n2)CC1 [Compound 40, (S)—N-(1-((1-cyanocyclopropyl)amino)-3-(6-(1-(2,2-difluoroethyl)-1,2,3,6-tetrahydropyridin-4-yl)benzo[d]oxazol-2-yl)-1-oxopropan-2-yl)-1-cyclopropyl-3-(1-methylcyclopropyl)-1H-pyrazole-5-carboxamide] | 8.82 | 57% | 12% | – | – |
| CC(=O)Nc1ccc(-c2ccc3nc(C[C@H](NC(=O)c4cc(C5(C)CC5)nn4C4CC4)C(=O)NC4(C#N)CC4)oc3c2)cn1 [Compound 41, (2S)—N-(1-cyanocyclopropyl)-2-{[2-cyclopropyl-5-(1-methylcyclopropyl)pyrazol-3-yl]formamido}-3-[6-(6-acetamidopyridin-3-yl)-1,3-benzoxazol-2-yl]propanamide] | 8.28 | 90% | 57.7% | – | – |
| Cc1ccc(-c2ccc3nc(C[C@H](NC(=O)c4cc(C5(C)CC5)nn4C4CC4)C(=O)NC4(C#N)CC4)oc3c2)cn1 [Compound 42, (S)—N-(1-((1-cyanocyclopropyl)amino)-3-(6-(6-methylpyridin-3-yl)benzo[d]oxazol-2-yl)-1-oxopropan-2-yl)-1-cyclopropyl-3-(1-methylcyclopropyl)-1H-pyrazole-5-carboxamide] | 8.35 | 34% | 5.6% | – | – |
| CCNc1ccc(-c2ccc3nc(C[C@H](NC(=O)c4cc(C5(C)CC5)nn4C4CC4)C(=O)NC4(C#N)CC4)oc3c2)cn1 [Compound 43, (S)—N-(1-((1-cyanocyclopropyl)amino)-3-(6-(6-(ethylamino)pyridin-3-yl)benzo[d]oxazol-2-yl)-1-oxopropan-2-yl)-1-cyclopropyl-3-(1-methylcyclopropyl)-1H-pyrazole-5-carboxamide] | 9.10 | 18% | 0.8% | – | – |
| Cc1cccc(-c2ccc3nc(C[C@H](NC(=O)c4cc(C5(C)CC5)nn4C4CC4)C(=O)NC4(C#N)CC4)oc3c2)n1 [Compound 44, (S)—N-(1-((1-cyanocyclopropyl)amino)-3-(6-(6-methylpyridin-2-yl)benzo[d]oxazol-2-yl)-1-oxopropan-2-yl)-1-cyclopropyl-3-(1-methylcyclopropyl)-1H-pyrazole-5-carboxamide] | 7.78 | 82% | 55.5% | > 7.30 | – |
